Experimental data: US20190008870A1, “COMPOSITIONS AND METHODS FOR LIPID METABOLISM DISORDER” (JANSFAT BIOTECHNOLOGY CO., LTD., priority 2016, published 2019)

How the values were obtained:
SR-B1 = test: HFD-induced hepatic SR-B1 expression; type: in vivo; settings: HFD mice; for SR-B1: CTL 100 (Table 8); for SR-B1 expression: Control 100%
Protocol: In the experiment, C57BL/6J male mice (21-22 g), after fasting, were fed an HFD as a model of hyperlipidemia for 8 weeks. During the 2 month experiments, mice fasted for one night before the experiment was changed from a standard diet (STD) to an HFD and then the mice were randomly divided into 13 groups, including a protection group, 2 control and 10 treatment groups. Six mice were used in each group. […] Liver from the protection group supplemented with KMUP-1 HCl (1 mg/kg/day) were used to determine the HMG CoA reductase expression. Each group of mice had free access to drinking water from week 1 to week 14. Tap water was used to normalize mineral nutrition.
For the expression of SR-B1, HMGR, PPARγ and ROCK II, isolated liver tissues were cut into small chips and placed into an extraction buffer (Tris 10 mM, pH 7.0, NaCl 140 mM, PMSF 2 mM, DTT 5 mM, NP-40 0.5%, pepstatin A 0.05 mM and leupeptin 0.2 mM) for hepatic protein extraction, and centrifuged at 20,000×g for 30 minutes. The obtained protein extract was boiled to a ratio of 4:1 with a sample buffer (Tris 100 mM, pH 6.8, glycerol 20%, SDS 4% and bromophenol blue 0.2%). Electrophoresis was performed using 10% SDS-polyacrylamide gel (1 hour, 100 V, 40 mA, 20 μg protein per lane).
Separated proteins, after 3 repeated centrifugations to discard up-layer tissue lipid in purity, were transferred to PVDF membranes treated with 5% fat-free milk powder to block the nonspecific IgGs (90 minutes, 100 V) and incubated for 1 hour with specific protein antibody. The blot was then incubated with anti-mouse or anti-goat IgG linked to alkaline phosphatase (1:1000) for 1 hour.

PKA/PKG = test: Hepatic PKA/PKG expression in HFD mice; type: in vivo; settings: Control printed 550%
HSL [1] = test: IHC staining of HSL in epididymal fat pads; type: in vivo, mice; settings: HFD 14 weeks, KMUP-1 2.5 mg/kg/day, Control 34
Protocol: (§1) For IHC of MMP-9/TNFα, HSL/p-HSL/ATGL and eNOS/IL-10, antigen retrieval of de-paraffinated sections was performed in Dako target retrieval solution, pH 9.0, in a vegetable steamer followed by the quenching of endogenous peroxidase activity with 3.0% H2O2 in methanol. Sections were then incubated with specific primary antibodies overnight at 4° C. in a humidified chamber. The antibodies used included rabbit polyclonal anti-eNOS (1:50 dilution) (Abcam, Cambridge, UK) or rabbit monoclonal anti-cleaved caspase-3 (1:50 dilution) (Cell Signaling, U.S.A.). The sections were then examined using a DAKO REAL EnVision™ Detection System kit (DAKO, Carpinteria, Calif., U.S.A.) and counterstained with hematoxylin. Images were obtained through a Nikon Eclipse TE200-S microscope.

IL-10 = test: IHC staining of IL-10 in epididymal fat pads; type: in vivo, mice; settings: HFD 14 weeks, KMUP-1 2.5 mg/kg/day, Control 31
Protocol: as §1

ApoA-I = ApoA-I expression in HepG2 cells; type: cell-based; settings: 10^−9-10^−5 M
Protocol: (§2) The HepG2 hepatoma cell line was purchased from the American Type Culture Collection (ATCC, Manassas, Va., U.S.A.). Cells were cultured in Dulbecco's Modified Eagle's Medium (DMEM). The culture media was supplemented with 5% heat-inactivated FBS, penicillin (100 U/mL) and streptomycin (100 μg/mL). Cells were grown in a humidified atmosphere containing 5% CO2 at 37° C., in which the oxygen tension in the incubator was held at 140 mmHg (20% O2, v/v; normoxic conditions). […] Then the targeted drugs solution was incubated with the cells for 24 hours, followed by protein extraction. The targeted drugs were added to the […].
(§3) HepG2 cells were treated with various concentrations of targeted drugs for 24 hours. Reactions were terminated by washing twice with cold PBS, and the cells were then harvested. Proteins in the whole-cell lysate were homogenized in an ice-cold lysis buffer and a protease inhibitor (Sigma-Aldrich, St. Louis, Mo., U.S.A.). The homogenate was centrifuged at 90,000×g for 15 minutes at 4° C., and supernatant was recovered as the total cellular protein. […]

LXRα = LXRα expression in HepG2 cells; type: cell-based; settings: 10^−9-10^−5 M
Protocol: as §2, §3

eNOS = test: Expression of eNOS (Table 12); settings: Control group 100 (%)
PDE-5A = test: Expression of PDE-5A (Table 12); settings: Control group 100 (%)
LDLRs [2] = test: IHC staining of LDLRs in livers of HFD mice; type: in vivo; settings: HFD animals, protection and treatment groups
LDLRs [3] = test: Fluorescence staining of LDLRs in HepG2 cells; type: cell-based
Protocol: HepG2 cells were used to determine the cellular protein expression of LDLRs in the presence of exogenous LDL (500 μg/mL). […] All images were collected and analyzed by scanning with Nikon Eclipse TE200-S microscope (Tokyo, Japan).

PKA = PKA expression/immunoreactivity in HepG2 cells; type: cell-based
Protocol: HepG2 cells were treated with various concentrations of targeted drugs for 24 hours. Reactions were terminated by washing twice with cold PBS, and the cells were then harvested. Proteins in the whole-cell lysate were homogenized in an ice-cold lysis buffer and a protease inhibitor (Sigma-Aldrich, St. Louis, Mo., U.S.A.). The homogenate was centrifuged at 90,000×g for 15 minutes at 4° C., and supernatant was recovered as the total cellular protein. Cytosolic and membrane fractions of HepG2 cells were prepared using a CNM (Cytosol Nuclear Membrane) compartmental protein extraction kit (BioChain Institute Inc., Hayward, Calif., U.S.A.) according to the manufacturer's instructions. All of the fractionated protein solutions were stored at −80° C. until analysis. To measure the expression levels of proteins by drugs, the total cell protein was extracted after incubation with treatments for 24 hours and then Western blotting analysis was performed as described previously.
(§4) To determine that KMUP-1 or targeted drugs can affect PKA, we incubated KMUP-1 (10^−4, 10^−5, 10^−6 M) or targeted drugs with HepG2 cells for 24 hours to measure the protein expressions of PKA/PKG by Western blotting or PKA/PKG and HSL immunoreactivities by fluorescence staining, combined with image scanning in the absence or presence of oxidized LDL (200 μg/mL).

HSL [4] = test: HSL immunoreactivity in HepG2 cells; type: cell-based; settings: 24 hours
Protocol: as §4

[5] = drinking KMUP-1, Protection group
[6] = drinking KMUP-1, Treatment group

Cn1c(=O)c2c(ncn2CCN2CCN(c3ccccc3Cl)CC2)n(C)c1=O [KMUP-1, 7-[2-[4-(2-chlorophenyl)piperazinyl]ethyl]-1,3-dimethylxanthine]
SR-B1 (SR-B1; Protection group): 29%
SR-B1 expression (SR-B1; [5]): 30%
SR-B1 expression (SR-B1; [6]): 59%
SR-B1 (SR-B1; treatment 2.5 mg/200 mL drink): 59%
PKA/PKG expression (PKA/PKG; [5]): 250%
PKA/PKG expression (PKA/PKG; [6]): 100%
Immunorespons percentages, HSL (HSL [1]): 57%
Immunorespons percentages, IL-10 (IL-10): 56%
ApoA-I expression (ApoA-I): concentration-dependently increased
LXRα expression (LXRα): concentration-dependently increased
eNOS expression (eNOS): 155.16 ± 14.8%
PDE-5A expression (PDE-5A): 64.5 ± 4.5%
hepatic LDLRs (IHC staining) (LDLRs [2]): increased
LDLR (green fluorescence) expression (LDLRs [3]; 24 hours, KMUP-1 10^−6, 10^−5, 10^−4 M, simvastatin 10^−5 M): increased
LDLR fluorescence at high concentration (LDLRs [3]; concentrations >10^−4 M, near the viability range): decline in fluoresence
oxLDL-induced reduction of PKA expression (PKA; HepG2 cells, 1, 10, 100 μM, 200 μg/mL oxLDL): reversed
PKA protein expression (PKA; HepG2 cells, 10, 20, 40 μM, in the presence of LDL (500 μg/mL)): could not significantly affect
PKA immunoreactivity (green fluorescence) (PKA; HepG2 cells, 24 hours): increased
HSL immunoreactivity (green fluorescence) (HSL [4]): increased
